Series [1] in a line: HMWP content by size-exclusion chromatography. It counts as physicochemical. Conditions: analogs 1–9 (pH 7.5 series); covalent dimers and polymers prior to fibril formation testing, SEC, % of total absorbance area at 215 nm. How it is done: The stability properties of the individual amylin analogs were assessed with respect to their propensity toward amyloid fibril formation. The relative amount of covalent dimers and polymers (HMWP) present prior to fibril formation testing was measured as a control for the potential inhibitory effect of HMWP on fibril formation propensity as reported elsewhere.[39]
Elution was performed under isocratic conditions with the following mobile phase prepared in Milli-Q water (Millipore A/S): 0.5 M NaCl, 10 mM sodium dihydrogen monohydrate, 5 mM ortho-phosphoric acid, 50% (v/v) 2-propanol. The amount of HMWP was determined as the absorbance area of the corresponding peaks given in percentage of the total absorbance area. The molar extinction coefficients of the molecules eluting in the HMWP fraction and the main peak was assumed to be equal.

Series [2] addresses T1, hAMY3R (Homo sapiens, UniProt O60896+P30988).
T1 sequence (P30988 25-474): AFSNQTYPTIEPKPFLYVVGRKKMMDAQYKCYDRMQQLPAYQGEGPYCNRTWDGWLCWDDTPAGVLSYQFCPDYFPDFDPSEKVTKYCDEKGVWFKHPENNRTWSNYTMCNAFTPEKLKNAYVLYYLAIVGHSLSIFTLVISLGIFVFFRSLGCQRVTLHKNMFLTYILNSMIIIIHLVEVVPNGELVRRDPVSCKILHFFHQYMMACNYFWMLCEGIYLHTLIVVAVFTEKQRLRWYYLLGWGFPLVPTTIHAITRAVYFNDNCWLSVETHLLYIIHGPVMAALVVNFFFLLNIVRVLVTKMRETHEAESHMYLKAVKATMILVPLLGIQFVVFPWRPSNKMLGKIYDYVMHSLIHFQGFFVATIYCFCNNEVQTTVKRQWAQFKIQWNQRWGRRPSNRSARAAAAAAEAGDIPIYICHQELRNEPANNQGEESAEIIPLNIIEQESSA
T1 sequence (O60896 24-148 partner): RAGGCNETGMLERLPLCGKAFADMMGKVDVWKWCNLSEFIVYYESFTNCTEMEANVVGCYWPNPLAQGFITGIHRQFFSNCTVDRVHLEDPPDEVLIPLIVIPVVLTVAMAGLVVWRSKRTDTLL
Briefly: cAMP-responsive element luciferase reporter assay, human AMY3R. It counts as cell-based. Details: expressed in transfected cells. As to conditions: for EC50 / pEC50: luciferase (human receptor assay); for EC50: Tables S12 and S14, read-out: hAMY3R pEC50 (converted); for pEC50: BHK cells stably expressing hCTR+RAMP3 and CRE-luciferase, 3 h, 37 °C, 10% FBS, read-out: hAMY3R EC50; for ratio hCTR/hAMY3R: ratio of luciferase EC50 values.

The nature of series [3]: ThT assay: fibril formation propensity and peptide recovery. Format: physicochemical. As to conditions: for ThT, pH 7.5 lag-time: 250 μM peptide, 10 mM HEPES pH 7.5, 1 μM ThT, 37 °C, 960 rpm, 45 h, lowest of four replicas, average of experiments; for recovery: pH 7.5, residual dissolved peptide after 45 h of shaking, centrifugation and 0.22 μm filtration, HPLC, relative to amount before stress. As to the method: The stability properties of the individual amylin analogs were assessed with respect to their propensity toward fibril formation, expressed as the time until fibril formation (measured as Lag time) and loss of dissolved peptide (assessed as Peptide Recovery). […] Samples were prepared as described previously (using the same methodology and materials) for a novel amylin-based analog candidate compound.[7]
Briefly, each compound was dissolved in 10 mM of glycylglycine buffer (pH 4.0) or HEPES buffer (pH 7.5) to a concentration of 250 μM, followed by ThT stock solution to a final concentration of 1 μM. Each solution was aliquoted into a microtiter plate (200 μL/well) sealed with a transparent adhesive sheet. Mechanical stress was applied at 37 °C incubation (960 rpm, 1 mm amplitude) with 20 min fluorescence reading intervals for 45 h (filters: excitation 444 nm; emission 485 nm). Each peptide was tested in experiments consisting of four replicas (e.g., four wells on the same plate), and the lag time of each replica was determined by visual inspection of the fluorescence-versus-time plot. For wells where no fibril formation could be detected, the lag time was set longer than the test period (>45 h). The lag time of the peptide was set to the lowest lag time of the four replicates (conservative estimate). Some of the peptides were tested in more than one experiment, and the lag time results given in Tables 6 and 9 represent the average of these experiments. The ThT time course data given in Supporting Information represent the average and SEM of each experiment.[40] After analysis, wells representing individual replicas were pooled, and the residual soluble peptide was isolated using centrifugation (20,000 g/30 min at room temperature) followed by […] filtration. The amount of residual dissolved peptide was determined using an HPLC with a flow rate of 2 mL/min at 30 °C and 215/276 nm detection. A gradient combining eluent A (7.7% w/w acetonitrile, 200 mM Na2SO4, 20 mM NaH2PO4, 20 mM Na2HPO4, pH 7.2) and eluent B (65.5% w/w acetonitrile) was applied. The amount of residual dissolved peptide was reported on a relative scale (Peptide Recovery) to the amount of dissolved peptide prior to mechanical stress.

Series [4] deals with T2, hCTR (Homo sapiens, UniProt P30988).
T2 sequence (P30988 25-474): T1 sequence (P30988 25-474)
Description: cAMP-responsive element luciferase reporter assay, human CTR. Format: cell-based. As to conditions: luciferase (human receptor assay); for EC50: Tables S12 and S14, read-out: hCTR pEC50 (converted); for pEC50: BHK cells stably expressing hCTR and CRE-luciferase, 3 h, 37 °C, 10% FBS, read-out: hCTR EC50. (In a reporter assay the amount or activity of a reporter protein is the signal.)

Series [5] can be described thus: Solubility versus pH profile.

pEC50: −log10 of the molar value. ≈ marks a conversion by molar mass, not a printed value. Like-named read-outs stand apart in the source and are kept apart here. Numbered stars: 1 amine (or outer) side, 2 acyl side, 3 side chain; on linkers, the order of the positions; unused ones are H or OH. Bridge positions count the residues as written; N and C are the ends. Side chains are listed from the residue outwards. Peptide text beside a SMILES is read from it. * marks the point of attachment. C20 diacid = O=C(O)CCCCCCCCCCCCCCCCCCC(=O)*; γGlu = O=C(O)[C@H](CCC(=O)[*:2])N[*:1]

Results on three compounds are retold here after paper PMC11284788, “NN1213 – A Potent, Long-Acting, and Selective Analog of Human Amylin” (Journal of Medicinal Chemistry, 2024).

In general, pEC50 refers to the negative decadic logarithm of the EC50, by convention in mol/L. By solubility (kinetic) is commonly meant the concentration staying in solution when a stock, usually in DMSO, is diluted into the medium.

With `CC[C@H](C)[C@H](NC(=O)[C@H](C)NC(=O)CNC(=O)[C@H](Cc1ccccc1)NC(=O)[C@@H]1CCCN1C(=O)[C@H](CC(N)=O)NC(=O)[C@H](CO)NC(=O)[C@H](CO)NC(=O)[C@H](Cc1c[nH]cn1)NC(=O)[C@H](CCCNC(=N)N)NC(=O)[C@H](CC(C)C)NC(=O)[C@H](Cc1ccccc1)NC(=O)[C@H](CC(=O)O)NC(=O)[C@H](C)NC(=O)[C@H](CC(C)C)NC(=O)[C@H](CCCNC(=N)N)NC(=O)[C@H](CCC(N)=O)NC(=O)[C@@H](NC(=O)[C@H](C)NC(=O)[C@@H]1CSSC[C@H](NC(=O)[C@@H](N)CCCCNC(=O)CC[C@H](NC(=O)CC[C@H](NC(=O)CCCCCCCCCCCCCCCCCCC(=O)O)C(=O)O)C(=O)O)C(=O)N[C@@H](CC(N)=O)C(=O)N[C@@H]([C@@H](C)O)C(=O)N[C@@H](C)C(=O)N[C@@H]([C@@H](C)O)C(=O)N1)[C@@H](C)O)C(=O)N1CCC[C@H]1C(=O)N[C@@H](CO)C(=O)N[C@@H](CO)C(=O)N[C@H](C(=O)N[C@@H](CC(N)=O)C(=O)N[C@H](C(=O)NCC(=O)N[C@@H](CO)C(=O)N[C@@H](CC(=O)O)C(=O)N[C@H](C(=O)N[C@@H](Cc1ccc(O)cc1)C(N)=O)[C@@H](C)O)C(C)C)[C@@H](C)O` [Peptide 8] (H-K([γGlu-γGlu-C20 diacid])CNTATCATQRLADFLRHSSNPFGAIPSSTNVGSDTY-NH2; disulfide 2-7), in series [1], the HMWP is 2.5%. For the same compound, in series [2], the EC50 was 0.389 nM, the pEC50 was 9.41 and the “ratio hCTR/hAMY3R” value is 5.6. In addition, in series [3], the “ThT, pH 7.5 lag-time” value is reported as above 45 h and the recovery is 100%. Besides, in series [4], the EC50 was 2.19 nM and the pEC50 is 8.66.
In series [1], `CC[C@H](C)[C@H](NC(=O)[C@@H]1CCCN1C(=O)CNC(=O)[C@H](Cc1ccccc1)NC(=O)[C@H](CC(N)=O)NC(=O)[C@H](CCC(=O)O)NC(=O)[C@H](CO)NC(=O)[C@H](CO)NC(=O)[C@H](Cc1c[nH]cn1)NC(=O)[C@H](CCCNC(=N)N)NC(=O)[C@H](CC(C)C)NC(=O)[C@H](Cc1ccccc1)NC(=O)[C@H](CC(=O)O)NC(=O)[C@H](C)NC(=O)[C@H](CC(C)C)NC(=O)[C@H](CCCNC(=N)N)NC(=O)[C@H](CCC(N)=O)NC(=O)[C@@H](NC(=O)[C@H](C)NC(=O)[C@@H]1CSSC[C@H](NC(=O)[C@@H](N)CCCCNC(=O)CC[C@H](NC(=O)CC[C@H](NC(=O)CCCCCCCCCCCCCCCCCCC(=O)O)C(=O)O)C(=O)O)C(=O)N[C@@H](CC(N)=O)C(=O)N[C@@H]([C@@H](C)O)C(=O)N[C@@H](C)C(=O)N[C@@H]([C@@H](C)O)C(=O)N1)[C@@H](C)O)C(=O)N[C@@H](CC(C)C)C(=O)N[C@@H](CO)C(=O)N[C@@H](CO)C(=O)N[C@H](C(=O)N1CCC[C@H]1C(=O)N[C@H](C(=O)NCC(=O)N[C@@H](CO)C(=O)N[C@@H](CC(=O)O)C(=O)N[C@H](C(=O)N[C@@H](Cc1ccc(O)cc1)C(N)=O)[C@@H](C)O)C(C)C)[C@@H](C)O` [Peptide 9] (H-K([γGlu-γGlu-C20 diacid])CNTATCATQRLADFLRHSSENFGPILSSTPVGSDTY-NH2; disulfide 2-7) registered an HMWP of 6%. Moreover, in series [2], the EC50 is 1.07 nM, the negative logarithm of the EC50 (pEC50) is 8.97 and the “ratio hCTR/hAMY3R” value was 7.8. Besides, in series [3], the “ThT, pH 7.5 lag-time” value was above 45 h and the recovery stood at 100%. In series [4], the EC50 is 8.32 nM and the pEC50 was 8.08.
On to `CC(C)C[C@H](NC(=O)[C@H](CCCNC(=N)N)NC(=O)[C@H](CCC(N)=O)NC(=O)[C@@H](NC(=O)[C@H](C)NC(=O)[C@@H]1CSSC[C@H](NC(=O)[C@@H](N)CCCCNC(=O)CC[C@H](NC(=O)CCCCCCCCCCCCCCCCCCC(=O)O)C(=O)O)C(=O)N[C@@H](CC(N)=O)C(=O)N[C@@H]([C@@H](C)O)C(=O)N[C@@H](C)C(=O)N[C@@H]([C@@H](C)O)C(=O)N1)[C@@H](C)O)C(=O)N[C@@H](C)C(=O)N[C@@H](CC(=O)O)C(=O)N[C@@H](Cc1ccccc1)C(=O)N[C@@H](CC(C)C)C(=O)N[C@@H](CCCNC(=N)N)C(=O)N[C@@H](Cc1c[nH]cn1)C(=O)N[C@@H](CO)C(=O)N[C@@H](CO)C(=O)N[C@@H](CCC(N)=O)C(=O)N[C@@H](CC(N)=O)C(=O)N[C@@H](Cc1ccccc1)C(=O)NCC(=O)N[C@@H](C)C(=O)N1CCC[C@H]1C(=O)N[C@@H](CC(C)C)C(=O)N[C@@H](CO)C(=O)N[C@@H](CO)C(=O)N[C@H](C(=O)N[C@@H](CC(N)=O)C(=O)N[C@H](C(=O)NCC(=O)N[C@@H](CO)C(=O)N1CCC[C@H]1C(=O)N[C@H](C(=O)N[C@@H](Cc1ccc(O)cc1)C(N)=O)[C@@H](C)O)C(C)C)[C@@H](C)O` [Peptide 2] (H-K([γGlu-C20 diacid])CNTATCATQRLADFLRHSSQNFGAPLSSTNVGSPTY-NH2; disulfide 2-7), for which the values for the EC50 in series [2] and in series [4] were 1.55 nM and 1.38 nM, respectively. Moreover, the pEC50 is 8.81 in series [2] and 8.86 in series [4]. Also, the “ratio hCTR/hAMY3R” value in series [2] turned out to be 0.9. For the same compound, the “ThT, pH 7.5 lag-time” value in series [3] was 0 h. This compound also yielded a recovery in series [3] of 0%. The solubility (kinetic) in series [5] (bis-tris-propane buffer, pH 6, aqueous buffer) was at least 200 µM; in series [5] (bis-tris-propane buffer, pH 6.5, aqueous buffer), 75 µM (≈ 330 µg/mL); in series [5] (bis-tris-propane buffer, pH 7, aqueous buffer) it was 7 µM (≈ 30.8 µg/mL); in series [5] (bis-tris-propane buffer, pH 7.5, aqueous buffer), 7 µM (≈ 30.8 µg/mL); in series [5] (bis-tris-propane buffer, pH 8, aqueous buffer) it was 15 µM (≈ 65.9 µg/mL); in series [5] (lactate buffer, pH 4, aqueous buffer), at least 200 µM. The same compound came in with a solubility (kinetic) in series [5] (lactate buffer, pH 5, aqueous buffer) of at least 200 µM.
